Here are results for 7 compounds from PubChem BioAssay (NCI).

“And” between values parts separate entries of the source, which are not always exact repeats. Identical values can stand only once.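 Compound exposure: 48 hours, 5 concentrations, 96-well plates. Here, GI50 denotes the concentration required for 50% inhibition of growth. The concentration for full growth arrest is given as TGI.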

Among the test systems are HS 578T breast; SNB-19 CNS; IGROV1 ovarian; U251 CNS; MDA-MB-435; MDA-MB-231 breast; NCI-H23 lung; HCC-2998 colon; OVCAR-3 ovarian; CCRF-CEM leukemia.
Holding throughout (experiment): growth of human tumour cells (NCI), 48 h

In the case of `NC(=O)c1cc(S(=O)(=O)Nc2nnc(-c3ccccc3)c(-c3ccccc3)n2)c(SCc2ccccc2)cc1Cl`, the GI50 in the test on HS 578T breast was over 44.4 µM; in the test with SNB-19 CNS, over 100 µM; in the test with IGROV1 ovarian, over 54.7 µM; in the test with U251 CNS, over 55600 nM; in the test on MDA-MB-435, over 53400 nM; in the test on MDA-MB-231 breast, over 85.4 µM. The GI50 in the test with NCI-H23 lung was over 72.3 µM; with HCC-2998 colon it was over 100 µM; in the test with OVCAR-3 ovarian, over 100 µM; in the test with CCRF-CEM leukemia, over 50.4 µM. The TGI in the test with HS 578T breast is over 75.5 µM; in the test with SNB-19 CNS, over 100 µM; in the test with IGROV1 ovarian it was over 94.3 µM; in the test on U251 CNS it was over 100 µM; in the test with MDA-MB-435 it was over 100 µM; in the test on MDA-MB-231 breast, over 100 µM. The TGI in the test with NCI-H23 lung is over 100 µM; in the test on HCC-2998 colon it was over 100 µM; in the test with OVCAR-3 ovarian, over 100 µM; with CCRF-CEM leukemia it was over 82.3 µM.
Regarding `COCC1(CO)C(=O)C2CCN1CC2` (stereo not given), the GI50 with HS 578T breast was over 67.5 µM; in the test on SNB-19 CNS it was over 69 µM; with IGROV1 ovarian it was 18.4 µM; in the test with U251 CNS it was over 71000 nM; in the test with MDA-MB-435, 17100 nM; in the test on MDA-MB-231 breast, 17.2 µM. The GI50 is 19.7 µM in the test with NCI-H23 lung, over 100 µM with HCC-2998 colon, 14.2 µM with OVCAR-3 ovarian and 10.8 µM in the test on CCRF-CEM leukemia. For the same compound, the TGI in the test on HS 578T breast was over 100 µM; in the test on SNB-19 CNS it was over 100 µM; with IGROV1 ovarian, 40.6 µM; with U251 CNS, over 100 µM; in the test on MDA-MB-435, 32.8 µM; with MDA-MB-231 breast it was 32 µM. Further, the TGI was 46 µM with NCI-H23 lung, over 100 µM in the test with HCC-2998 colon, 29.4 µM with OVCAR-3 ovarian and 37.1 µM with CCRF-CEM leukemia.
In the case of `O[C@H](c1cc(C(F)(F)F)nc2c(C(F)(F)F)cccc12)[C@@H]1CCCCN1`, the GI50 was 4.35 µM in the test with HS 578T breast; 7.19 µM in the test with SNB-19 CNS; 1.17 µM in the test with IGROV1 ovarian; 3050 nM in the test with U251 CNS; 2430 nM with MDA-MB-435; 1.78 µM in the test on MDA-MB-231 breast. Also, the GI50 in the test on NCI-H23 lung is 4.75 µM; with HCC-2998 colon, 1.85 µM; in the test with OVCAR-3 ovarian, 3.38 µM; in the test with CCRF-CEM leukemia, 8.52 µM. The TGI in the test with HS 578T breast is 25.5 µM; in the test with SNB-19 CNS it was 20.9 µM; in the test with IGROV1 ovarian, 4.14 µM; in the test with U251 CNS, 8.38 µM; in the test on MDA-MB-435, 7.07 µM; in the test with MDA-MB-231 breast, 4.08 µM. Moreover, the TGI was 16.6 µM in the test with NCI-H23 lung, 4.13 µM in the test on HCC-2998 colon, 11.5 µM in the test with OVCAR-3 ovarian and 40.7 µM with CCRF-CEM leukemia.
Consider `CSc1ccc2c(c1)C(=O)c1c-2n(CCCBr)c(=O)c2cc([N+](=O)[O-])ccc12`, for which the GI50 was over 100 µM in the test with HS 578T breast; 3.78 µM with SNB-19 CNS; 12.1 µM in the test on IGROV1 ovarian; 1980 nM with U251 CNS; 31000 nM in the test with MDA-MB-435; over 100 µM with MDA-MB-231 breast. For the same compound, the GI50 in the test with NCI-H23 lung was 8.03 µM; in the test on HCC-2998 colon, 74.4 µM; with OVCAR-3 ovarian, over 100 µM; with CCRF-CEM leukemia it was 0.451 µM. Further, the TGI in the test with HS 578T breast, in the test with SNB-19 CNS, in the test with IGROV1 ovarian, with U251 CNS, with MDA-MB-435 and in the test on MDA-MB-231 breast was over 100 µM throughout. Further, the TGI in the test with NCI-H23 lung, with HCC-2998 colon, in the test with OVCAR-3 ovarian and in the test with CCRF-CEM leukemia was over 100 µM in each case.
Turning to `C=C1C(=O)O[C@H]2[C@H]1CC/C(COC(=O)/C=C\C(=O)NCc1ccc(Cn3c(=O)sn(CCCC)c3=O)cc1)=C\CC[C@@]1(C)O[C@@H]21`, the GI50 in the test on HS 578T breast was 1.3 µM; with SNB-19 CNS, 1.53 µM; with IGROV1 ovarian, 0.556 µM; with U251 CNS it was 1430 nM; in the test with MDA-MB-435, 513 nM; with MDA-MB-231 breast it was 0.992 µM. The GI50 is 1.4 µM in the test on NCI-H23 lung, 1.64 µM in the test on HCC-2998 colon, 0.229 µM in the test on OVCAR-3 ovarian and 0.275 µM in the test with CCRF-CEM leukemia. For the same compound, the TGI with HS 578T breast was 3.32 µM; in the test on SNB-19 CNS, 2.93 µM; with IGROV1 ovarian, 1.73 µM; in the test with U251 CNS, 3.2 µM; in the test with MDA-MB-435, 1.77 µM; in the test with MDA-MB-231 breast it was 2.34 µM. The TGI in the test with NCI-H23 lung was 2.89 µM; with HCC-2998 colon, 3.19 µM; in the test with OVCAR-3 ovarian, 0.589 µM; in the test on CCRF-CEM leukemia it was 1.63 µM.
As to `O=S(=O)(Nc1ccc(F)cc1F)c1ccc(-c2cnc(C3CC3)o2)cc1`, the GI50 in the test on HS 578T breast is 0.545 µM; in the test on SNB-19 CNS, 0.638 µM; in the test with IGROV1 ovarian it was 0.535 µM; in the test on U251 CNS, 552 nM; with MDA-MB-435, 140 nM; with MDA-MB-231 breast, 1.37 µM. Further, the GI50 in the test on NCI-H23 lung was 1.75 µM; in the test on HCC-2998 colon it was 2.39 µM; in the test with OVCAR-3 ovarian, 0.493 µM; with CCRF-CEM leukemia, 0.856 µM. The TGI in the test on HS 578T breast is 22.7 µM; in the test with SNB-19 CNS, over 100 µM; in the test on IGROV1 ovarian it was 67.2 µM; with U251 CNS it was 26.8 µM; in the test on MDA-MB-435, 2.72 µM; in the test on MDA-MB-231 breast, 21.7 µM. Further, the TGI is 68.9 µM with NCI-H23 lung, 27.3 µM in the test with HCC-2998 colon, 11.9 µM in the test with OVCAR-3 ovarian and over 100 µM in the test on CCRF-CEM leukemia.
Turning to `O=C(c1ccc(/C=C/c2n[nH]c3ccccc23)cc1)N1CCNCC1`, the GI50 was 1.93 µM and 4.22 µM in the test on HS 578T breast; 4.26 µM and 15.8 µM in the test with SNB-19 CNS; 5.32 µM and 3.14 µM in the test with IGROV1 ovarian; 1810 nM and 12200 nM with U251 CNS; 1540 nM and 2580 nM with MDA-MB-435; 6.04 µM and 3.62 µM in the test with MDA-MB-231 breast. Also, the GI50 was > 10 µM and 2.55 µM with NCI-H23 lung; > 10 µM and 12.1 µM in the test with HCC-2998 colon; 9.32 µM and 8.01 µM in the test with OVCAR-3 ovarian; 6.03 µM and 10.4 µM with CCRF-CEM leukemia. Moreover, the TGI in the test with HS 578T breast is 7.36 µM and 31.7 µM; with SNB-19 CNS it was > 10 µM and 33.2 µM; in the test with IGROV1 ovarian, > 10 µM and 19.1 µM; in the test on U251 CNS, 3.33 µM and 27.2 µM; in the test with MDA-MB-435, 2.9 µM and 15.5 µM; in the test with MDA-MB-231 breast, > 10 µM and 18 µM. Further, the TGI was > 10 µM and 16.9 µM in the test on NCI-H23 lung; > 10 µM and 34.1 µM in the test with HCC-2998 colon; > 10 µM and 24 µM in the test with OVCAR-3 ovarian; > 10 µM and 75.8 µM in the test with CCRF-CEM leukemia.
